Experimental data taken from patent publication US8829026B2, “Sulfamoyl benzoic acid heterobicyclic derivatives as TRPM8 antagonists” (RaQualia Pharma Inc., priority 2010, dated 2014).

Target: T1, human TRPM8 (Homo sapiens, UniProt Q7Z2W7)
T1 construct: expressed in transfected cells
Assay: Menthol-induced Ca2+ influx in HEK293 cells stably expressing human TRPM8
Assay type: cell-based
Details: 30 microM menthol-induced Ca2+ influx, HEK293 cells stably expressing human TRPM8, 11-point dose-response
Description: Measurement of the Menthol-Induced Ca^2+ Influx in HEK293 Cells Stably Expressing Human TRPM8
A cell-based Ca^2+ influx assay using HEK293 cells stably expressing human TRPM8 was used to identify the activity of compounds.
HEK293 cells stably expressing human TRPM8 were grown in T175 flasks at 37° C. in a 5% CO2 humidified incubator to about 80% confluence. Media composition consisted of Dulbecco's Modified Eagle Medium (high glucose), 10% fetal calf serum (FCS), 100 units/ml Penicillin, 100 microg/ml Streptomycin and 600 microg/ml Geneticine. At 24 hours prior to assay, cells were seeded in poly-D-lysine coated 384-well plates (BD FALCON) at a density of 30,000 cells per well in culture medium and grown overnight in 5% CO2 at 37° C. On the assay day, growth media was removed and cells were loaded with 0.5 microM Fluo4-AM (Molecular Probes) and 0.005% Pluronic F-127 dissolved in assay buffer (Hank's balanced salt solution (HBSS), 19.4 mM HEPES pH7.4, 2.5 mM Probenecid) for 1 hour at room temperature. After washing with assay buffer, the cells were preincubated with various concentrations of the compounds for 5 min. The changes in intracellular calcium concentration by addition of 30 microM menthol were monitored by the cell imaging technology by Hamamatsu Photonics's Functional Drug Screening System (FDSS).
The IC50 values for compounds of the present invention were determined from 11-point dose-response studies. Curves were generated using the average of duplicate wells for each data point. Finally, the IC50 values are calculated with the best-fit dose curve determined by XLfit (ID Business Solutions Ltd.).

T1 sequence (Q7Z2W7 whole entry): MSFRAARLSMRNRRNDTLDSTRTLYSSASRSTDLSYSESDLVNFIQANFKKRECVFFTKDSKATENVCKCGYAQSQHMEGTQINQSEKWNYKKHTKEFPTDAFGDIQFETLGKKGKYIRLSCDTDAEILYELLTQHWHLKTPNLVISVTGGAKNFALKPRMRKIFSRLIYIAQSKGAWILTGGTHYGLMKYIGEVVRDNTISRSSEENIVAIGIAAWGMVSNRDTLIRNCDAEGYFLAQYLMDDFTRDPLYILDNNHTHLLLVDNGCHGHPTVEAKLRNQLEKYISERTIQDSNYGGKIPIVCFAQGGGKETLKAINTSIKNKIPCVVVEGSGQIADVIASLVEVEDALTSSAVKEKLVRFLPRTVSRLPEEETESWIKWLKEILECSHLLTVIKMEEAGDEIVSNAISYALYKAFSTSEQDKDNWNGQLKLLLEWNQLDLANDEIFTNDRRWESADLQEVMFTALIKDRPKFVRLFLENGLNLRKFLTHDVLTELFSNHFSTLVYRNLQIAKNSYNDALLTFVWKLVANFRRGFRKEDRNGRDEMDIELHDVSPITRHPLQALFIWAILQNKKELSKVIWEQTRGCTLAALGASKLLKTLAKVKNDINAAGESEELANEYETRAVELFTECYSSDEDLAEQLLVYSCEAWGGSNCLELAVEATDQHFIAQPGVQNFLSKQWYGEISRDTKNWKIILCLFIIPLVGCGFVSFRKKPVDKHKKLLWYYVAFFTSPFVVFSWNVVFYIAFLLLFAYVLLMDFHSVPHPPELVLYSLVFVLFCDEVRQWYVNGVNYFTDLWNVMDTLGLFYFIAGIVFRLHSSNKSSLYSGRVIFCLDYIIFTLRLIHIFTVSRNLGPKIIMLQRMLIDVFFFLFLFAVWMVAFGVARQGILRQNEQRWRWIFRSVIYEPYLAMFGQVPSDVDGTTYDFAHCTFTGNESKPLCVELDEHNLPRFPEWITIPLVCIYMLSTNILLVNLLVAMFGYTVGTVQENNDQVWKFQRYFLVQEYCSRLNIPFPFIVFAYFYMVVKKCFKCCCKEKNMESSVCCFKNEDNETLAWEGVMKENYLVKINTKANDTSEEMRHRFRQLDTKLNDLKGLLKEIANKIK

IC50 | Structure (SMILES)
< 1000 nM | Cn1ncc2cc(CN(c3ncc(C(F)(F)F)cc3Cl)S(=O)(=O)c3ccc(C(=O)O)cc3)ccc21 [Example 3, 4-(N-(3-Chloro-5-(trifluoromethyl)pyridin-2-yl)-N-((1-methyl-1H-indazol-5-yl)methyl)sulfamoyl)benzoic acid]
< 1000 nM | CCc1cc(C(=O)O)ccc1S(=O)(=O)N(Cc1ccc2c(cnn2C)c1)c1ncc(C(F)(F)F)cc1Cl [Example 4, 4-(N-(3-Chloro-5-(trifluoromethyl)pyridin-2-yl)-N-((1-methyl-1H-indazol-5-yl)methyl)sulfamoyl)-3-ethylbenzoic acid]
< 1000 nM | O=C(O)c1ccc(S(=O)(=O)N(Cc2ccc3occc3c2)c2ncc(Cl)cc2Cl)cc1 [Example 5, 4-(N-(Benzofuran-5-ylmethyl)-N-(3,5-dichloropyridin-2-yl)sulfamoyl)benzoic acid]
< 1000 nM | Cn1ccc2cc(CN(c3ncc(C(F)(F)F)cc3Cl)S(=O)(=O)c3ccc(C(=O)O)cc3)ccc21 [Example 6, 4-(N-(3-Chloro-5-(trifluoromethyl)pyridin-2-yl)-N-((1-methyl-1H-indol-5-yl)methyl)sulfamoyl)benzoic acid]
< 1000 nM | Cn1ccc2cc(CN(c3ncc(Cl)cc3Cl)S(=O)(=O)c3ccc(C(=O)O)cc3)ccc21 [Example 7, 4-(N-(3,5-Dichloropyridin-2-yl)-N-((1-methyl-1H-indol-5-yl)methyl)sulfamoyl)benzoic acid]
< 1000 nM | Cn1ccc2cc(CN(c3ncc(C(F)(F)F)cc3Cl)S(=O)(=O)c3ccc(C(=O)O)cc3Cl)ccc21 [Example 8, 3-Chloro-4-(N-(3-chloro-5-(trifluoromethyl)pyridin-2-yl)-N-((1-methyl-1H-indol-5-yl)methyl)sulfamoyl)benzoic acid]
< 1000 nM | Cn1ccc2cc(CN(c3ncc(Cl)cc3Cl)S(=O)(=O)c3ccc(C(=O)O)cc3Cl)ccc21 [Example 9, 3-Chloro-4-(N-(3,5-dichloropyridin-2-yl)-N-((1-methyl-1H-indol-5-yl)methyl)sulfamoyl)benzoic acid]
< 1000 nM | O=C(O)c1ccc(S(=O)(=O)N(Cc2ccc3ccoc3c2)c2ncc(Cl)cc2Cl)cc1 [Example 10, 4-(N-(Benzofuran-6-ylmethyl)-N-(3,5-dichloropyridin-2-yl)sulfamoyl)benzoic acid]
< 1000 nM | Cc1cc(C(=O)O)ccc1S(=O)(=O)N(Cc1ccc2c(ccn2C)c1)c1ncc(C(F)(F)F)cc1Cl [Example 11, 4-(N-(3-Chloro-5-(trifluoromethyl)pyridin-2-yl)-N-((1-methyl-1H-indol-5-yl)methyl)sulfamoyl)-3-methylbenzoic acid]
< 1000 nM | Cc1cc(C(=O)O)ccc1S(=O)(=O)N(Cc1ccc2c(ccn2C)c1)c1ncc(Cl)cc1Cl [Example 12, 4-(N-(3,5-Dichloropyridin-2-yl)-N-((1-methyl-1H-indol-5-yl)methyl)sulfamoyl)-3-methylbenzoic acid]
< 1000 nM | CCn1cc2cc(CN(c3ncc(C(F)(F)F)cc3Cl)S(=O)(=O)c3ccc(C(=O)O)cc3)ccc2n1 [Example 13, 4-(N-(3-Chloro-5-(trifluoromethyl)pyridin-2-yl)-N-((2-ethyl-2H-indazol-5-yl)methyl)sulfamoyl)benzoic acid]
< 1000 nM | CCn1ncc2cc(CN(c3ncc(C(F)(F)F)cc3Cl)S(=O)(=O)c3ccc(C(=O)O)cc3Cl)ccc21 [Example 14, 3-Chloro-4-(N-(3-chloro-5-(trifluoromethyl)pyridin-2-yl)-N-((1-ethyl-1H-indazol-5-yl)methyl)sulfamoyl)benzoic acid]
1000 to 10000 nM | Cn1cc2cc(CN(c3ncc(C(F)(F)F)cc3Cl)S(=O)(=O)c3ccc(C(=O)O)cc3)ccc2n1 [Example 16, 4-(N-(3-Chloro-5-(trifluoromethyl)pyridin-2-yl)-N-((2-methyl-2H-indazol-5-yl)methyl)sulfamoyl)benzoic acid]
< 1000 nM | Cn1ncc2ccc(CN(c3ncc(C(F)(F)F)cc3Cl)S(=O)(=O)c3ccc(C(=O)O)cc3)cc21 [Example 17, 4-(N-(3-Chloro-5-(trifluoromethyl)pyridin-2-yl)-N-((1-methyl-1H-indazol-6-yl)methyl)sulfamoyl)benzoic acid]
1000 to 10000 nM | Cn1cc2ccc(CN(c3ncc(C(F)(F)F)cc3Cl)S(=O)(=O)c3ccc(C(=O)O)cc3)cc2n1 [Example 18, 4-(N-(3-Chloro-5-(trifluoromethyl)pyridin-2-yl)-N-((2-methyl-2H-indazol-6-yl)methyl)sulfamoyl)benzoic acid]
< 1000 nM | CCn1ncc2cc(CN(c3ncc(Cl)cc3Cl)S(=O)(=O)c3ccc(C(=O)O)cc3)ccc21 [Example 19, 4-(N-(3,5-Dichloropyridin-2-yl)-N-((1-ethyl-1H-indazol-5-yl)methyl)sulfamoyl)benzoic acid]
< 1000 nM | COCCn1ncc2cc(CN(c3ncc(C(F)(F)F)cc3Cl)S(=O)(=O)c3ccc(C(=O)O)cc3)ccc21 [Example 20, 4-(N-(3-Chloro-5-(trifluoromethyl)pyridin-2-yl)-N-((1-(2-methoxyethyl)-1H-indazol-5-yl)methyl)sulfamoyl)benzoic acid]
< 1000 nM | O=C(O)c1ccc(S(=O)(=O)N(Cc2ccc3c(cnn3C3CCOCC3)c2)c2ncc(C(F)(F)F)cc2Cl)cc1 [Example 21, 4-(N-(3-Chloro-5-(trifluoromethyl)pyridin-2-yl)-N-((1-(tetrahydro-2H-pyran-4-yl)-1H-indazol-5-yl)methyl)sulfamoyl)benzoic acid]
1000 to 10000 nM | CC(C)(O)Cn1ncc2cc(CN(c3ncc(C(F)(F)F)cc3Cl)S(=O)(=O)c3ccc(C(=O)O)cc3)ccc21 [Example 22, 4-(N-(3-Chloro-5-(trifluoromethyl)pyridin-2-yl)-N-((1-(2-hydroxy-2-methylpropyl)-1H-indazol-5-yl)methyl)sulfamoyl)benzoic acid]
< 1000 nM | CCc1cc(C(=O)O)ccc1S(=O)(=O)N(Cc1ccc2c(cnn2C)c1)c1ncc(Cl)cc1Cl [Example 23, 4-(N-(3,5-Dichloropyridin-2-yl)-N-((1-methyl-1H-indazol-5-yl)methyl)sulfamoyl)-3-ethylbenzoic acid]
< 1000 nM | Cn1ncc2cc(CN(c3ncc(Cl)cc3Cl)S(=O)(=O)c3ccc(C(=O)O)cc3Cl)ccc21 [Example 24, 3-Chloro-4-(N-(3,5-dichloropyridin-2-yl)-N-((1-methyl-1H-indazol-5-yl)methyl)sulfamoyl)benzoic acid]
< 1000 nM | Cn1ncc2cc(CN(c3ncc(C(F)(F)F)cc3Cl)S(=O)(=O)c3ccc(C(=O)O)cc3Cl)ccc21 [Example 25, 3-Chloro-4-(N-(3-chloro-5-(trifluoromethyl)pyridin-2-yl)-N-((1-methyl-1H-indazol-5-yl)methyl)sulfamoyl)benzoic acid]
< 1000 nM | Cc1cc(C(=O)O)ccc1S(=O)(=O)N(Cc1ccc2c(cnn2C)c1)c1ncc(C(F)(F)F)cc1Cl [Example 26, 4-(N-(3-Chloro-5-(trifluoromethyl)pyridin-2-yl)-N-((1-methyl-1H-indazol-5-yl)methyl)sulfamoyl)-3-methylbenzoic acid]
< 1000 nM | Cc1cc(C(=O)O)ccc1S(=O)(=O)N(Cc1ccc2c(cnn2C)c1)c1ncc(Cl)cc1Cl [Example 27, 4-(N-(3,5-Dichloropyridin-2-yl)-N-((1-methyl-1H-indazol-5-yl)methyl)sulfamoyl)-3-methylbenzoic acid]
< 1000 nM | O=C(O)c1ccc(S(=O)(=O)N(Cc2ccc3c(cnn3C3CC3)c2)c2ncc(C(F)(F)F)cc2Cl)cc1 [Example 28, 4-(N-(3-Chloro-5-(trifluoromethyl)pyridin-2-yl)-N-((1-cyclopropyl-1H-indazol-5-yl)methyl)sulfamoyl)benzoic acid]
< 1000 nM | O=C(O)c1ccc(S(=O)(=O)N(Cc2ccc3c(cnn3C3CC3)c2)c2ncc(Cl)cc2Cl)cc1 [Example 29, 4-(N-((1-Cyclopropyl-1H-indazol-5-yl)methyl)-N-(3,5-dichloropyridin-2-yl)sulfamoyl)benzoic acid]
1000 to 10000 nM | Cn1nnc2cc(CN(c3ncc(C(F)(F)F)cc3Cl)S(=O)(=O)c3ccc(C(=O)O)cc3)ccc21 [Example 30, 4-(N-(3-Chloro-5-(trifluoromethyl)pyridin-2-yl)-N-((1-methyl-1H-benzo[d][1,2,3]triazol-5-yl)methyl)sulfamoyl)benzoic acid]
< 1000 nM | O=C(O)c1ccc(S(=O)(=O)N(Cc2ccc3c(cnn3C3CC3)c2)c2ncc(C(F)(F)F)cc2Cl)c(Cl)c1 [Example 31, 3-Chloro-4-(N-(3-chloro-5-(trifluoromethyl)pyridin-2-yl)-N-((1-cyclopropyl-1H-indazol-5-yl)methyl)sulfamoyl)benzoic acid]
< 1000 nM | O=C(O)c1ccc(S(=O)(=O)N(Cc2ccc3c(cnn3C3CC3)c2)c2ncc(Cl)cc2Cl)c(Cl)c1 [Example 32, 3-Chloro-4-(N-((1-cyclopropyl-1H-indazol-5-yl)methyl)-N-(3,5-dichloropyridin-2-yl)sulfamoyl)benzoic acid]
< 1000 nM | Cc1cc(C(=O)O)ccc1S(=O)(=O)N(Cc1ccc2c(cnn2C2CC2)c1)c1ncc(C(F)(F)F)cc1Cl [Example 33, 4-(N-(3-Chloro-5-(trifluoromethyl)pyridin-2-yl)-N-((1-cyclopropyl-1H-indazol-5-yl)methyl)sulfamoyl)-3-methylbenzoic acid]
